Measurements from PMC12591484 (PLOS One, 2025).

Key:
[1] = system: α1β3γ2L GABAA receptors, bulky mutation at β3N265; design: method as in PMID 30696720, PMID 32247113; key: +: Mutant-function studies are deemed positive when bulky mutations (mostly tryptophans) at the site significantly reduce positive modulation by anesthetics; -: Negative results are indicated by “–“ symbols; conditions: cited from earlier work
[2] = system: α1β3γ2L GABAA receptors, bulky mutation at γ2I242; design: key to Mutant-function result, γ2– (M1) I242: +: Mutant-function studies are deemed positive when bulky mutations (mostly tryptophans) at the site significantly reduce positive modulation by anesthetics; -: Negative results are indicated by “–“ symbols; conditions: cited from earlier work
[3] = system: α1β3γ2L GABAA receptors, bulky mutation at α1S270; design: key to Mutant-function result, α1+ (M2, M3) S270: +: Mutant-function studies are deemed positive when bulky mutations (mostly tryptophans) at the site significantly reduce positive modulation by anesthetics; -: Negative results are indicated by “–“ symbols; conditions: cited from earlier work
[4] = system: α1β3γ2L GABAA receptors, bulky mutation at γ2L246; design: key: +: Mutant-function studies are deemed positive when bulky mutations (mostly tryptophans) at the site significantly reduce positive modulation by anesthetics; -: Negative results are indicated by “–“ symbols; conditions: cited from earlier work
[5] = system: α1β3γ2L GABAA receptors, bulky mutation at β3M286; design: method as in PMID 30696720; key: +: Mutant-function studies are deemed positive when bulky mutations (mostly tryptophans) at the site significantly reduce positive modulation by anesthetics; -: Negative results are indicated by “–“ symbols; conditions: cited from earlier work
[6] = system: α1β3γ2L GABAA receptors, bulky mutation at γ2S301; design: method as in PMID 30696720; key: +: Mutant-function studies are deemed positive when bulky mutations (mostly tryptophans) at the site significantly reduce positive modulation by anesthetics; -: Negative results are indicated by “–“ symbols; conditions: cited from earlier work
[7] = system: α1β3γ2L GABAA receptors, bulky mutation at γ2S280; design: method as in PMID 30696720, PMID 32247113; key: +: Mutant-function studies are deemed positive when bulky mutations (mostly tryptophans) at the site significantly reduce positive modulation by anesthetics; -: Negative results are indicated by “–“ symbols; conditions: cited from earlier work
[8] = system: α1β3γ2L GABAA receptors, bulky mutation at α1M236; design: key: +: Mutant-function studies are deemed positive when bulky mutations (mostly tryptophans) at the site significantly reduce positive modulation by anesthetics; -: Negative results are indicated by “–“ symbols; conditions: cited from earlier work
[9] = target: T1, α1A291Cβ3γ2L GABAA receptors (Homo sapiens, UniProt P14867+P18507+P28472, A318C); assay: Drug protection from pCMBS modification (SCAMP); type: cell-based; conditions: for modification ratio with anesthetic present, single oocyte example (Fig 2): 3 mM GABA + 10 µM pCMBS for 90 s plus […] etomidate
T1 construct: expressed in transfected cells; host or cells: Xenopus oocytes injected with capped mRNA, 1α:1β:5γ
T1 sequence (P14867 28-456 A318C): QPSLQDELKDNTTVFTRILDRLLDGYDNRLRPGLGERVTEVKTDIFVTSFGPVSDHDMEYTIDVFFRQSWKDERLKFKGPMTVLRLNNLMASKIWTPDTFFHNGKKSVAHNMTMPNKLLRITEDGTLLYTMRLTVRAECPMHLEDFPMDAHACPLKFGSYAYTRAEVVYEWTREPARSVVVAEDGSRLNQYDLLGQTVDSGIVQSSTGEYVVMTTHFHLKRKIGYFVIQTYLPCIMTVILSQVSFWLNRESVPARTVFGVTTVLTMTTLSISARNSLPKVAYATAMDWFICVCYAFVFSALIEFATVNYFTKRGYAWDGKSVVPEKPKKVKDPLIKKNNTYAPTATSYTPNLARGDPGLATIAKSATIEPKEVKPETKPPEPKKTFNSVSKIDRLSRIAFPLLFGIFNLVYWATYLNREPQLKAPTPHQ
T1 sequence (P28472 26-473): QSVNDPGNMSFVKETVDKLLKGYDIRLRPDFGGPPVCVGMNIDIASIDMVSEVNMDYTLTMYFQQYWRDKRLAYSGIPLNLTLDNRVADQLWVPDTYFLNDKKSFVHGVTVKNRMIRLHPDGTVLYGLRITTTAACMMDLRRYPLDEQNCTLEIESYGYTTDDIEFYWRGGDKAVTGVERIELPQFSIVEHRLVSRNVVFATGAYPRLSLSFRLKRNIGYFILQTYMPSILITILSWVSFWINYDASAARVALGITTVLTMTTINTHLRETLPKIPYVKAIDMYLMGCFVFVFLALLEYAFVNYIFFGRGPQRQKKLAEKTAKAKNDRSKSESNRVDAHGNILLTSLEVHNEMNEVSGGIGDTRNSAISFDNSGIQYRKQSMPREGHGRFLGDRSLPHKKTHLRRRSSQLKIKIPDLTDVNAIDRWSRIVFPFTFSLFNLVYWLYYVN
T1 sequence (P18507 40-475): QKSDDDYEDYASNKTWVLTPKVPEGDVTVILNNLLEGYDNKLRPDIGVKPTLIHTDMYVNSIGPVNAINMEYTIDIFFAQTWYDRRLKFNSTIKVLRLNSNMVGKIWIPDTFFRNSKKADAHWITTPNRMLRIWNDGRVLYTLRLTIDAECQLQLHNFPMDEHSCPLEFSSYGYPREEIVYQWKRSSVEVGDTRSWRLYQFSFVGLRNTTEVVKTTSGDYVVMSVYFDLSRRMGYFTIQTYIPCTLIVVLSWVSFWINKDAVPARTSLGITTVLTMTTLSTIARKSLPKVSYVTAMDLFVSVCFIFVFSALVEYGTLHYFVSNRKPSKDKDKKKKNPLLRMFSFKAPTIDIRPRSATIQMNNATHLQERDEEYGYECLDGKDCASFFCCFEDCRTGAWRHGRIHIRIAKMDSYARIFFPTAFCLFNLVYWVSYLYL
Description: (§1) Experiments were performed in ND-96 buffer at room temperature (20–22°C). Oocytes were placed in a low-volume (30µl) flow chamber and impaled with borosilicate microelectrodes filled with 3M KCl (resistance 0.5–3 MΩ) and voltage-clamped at −50 mV (model OC-725C; Warner Instruments, Hamden, CT, USA). Superfusate solutions in ND-96 were delivered at 2 ml/min from glass syringe reservoirs via computer-controlled valves (VC-8; Warner Instruments), a micro-manifold (ALA-VM8; ALA Scientific Instruments, Farmingdale, NY, USA), and PTFE tubing. Currents were digitized at 200 Hz on a computer running ClampEx v8.0 software (Molecular Devices, San Jose, CA, USA). Digitized traces were filtered with a 10-Hz low-pass Bessel function, leak corrected and analyzed for peak amplitude off-line using Clampfit v8 software (Molecular Devices).
(§2) Drug protection from pCMBS modification was assessed under pCMBS exposure conditions that produced approximately half of the maximal modification ratio for each mutant receptor, and a least a value of 3. This approach balanced the magnitude of functional modification signals (smaller with less pCMBS exposure) against the challenge of using a reversibly bound ligand to competitively block an irreversible covalent cysteine-modifying reaction. […] Each oocyte was used in a single SCAMP experiment. […] Etomidate was used as a positive control for anesthetic protection in α1M236C and β3M286C mutants and as a negative control in α1S270C, α1A291C, β3L231C, γ2S301C, γ2I242C, and γ2L246C mutants. R-mTFD-MPAB was used as a positive control in α1S270C, α1A291C, β3L231C, and γ2LS301C mutants and as a negative control in α1M236C and β3M286C mutants. For each cysteine mutant and protective drug combination, five oocytes were studied.
(§3) Non-linear least squares fits and statistical analyses were performed in Prism 10.4.0. (GraphPad Software, San Diego, CA, USA). […] Protection (steric inhibition of pCMBS modification) was inferred when anesthetics produced significant reductions in modification ratios relative to control (no anesthetic) values. The statistical significance threshold was p < 0.05.

[10] = system: α1β3γ2L GABAA receptors, bulky mutation at β3M227; design: key: +: Mutant-function studies are deemed positive when bulky mutations (mostly tryptophans) at the site significantly reduce positive modulation by anesthetics; -: Negative results are indicated by “–“ symbols; conditions: cited from earlier work
[11] = system: α1β3γ2L GABAA receptors, bulky mutation at β3L231; design: key: +: Mutant-function studies are deemed positive when bulky mutations (mostly tryptophans) at the site significantly reduce positive modulation by anesthetics; -: Negative results are indicated by “–“ symbols; conditions: cited from earlier work
[12] = target: T2, α1β3γ2I242C GABAA receptors (Homo sapiens, UniProt P14867+P18507+P28472, I281C); assay: Drug protection from pCMBS modification (SCAMP); type: cell-based; design: key to SCAMP result, γ2– (M1) I242: +: Mutant-function studies are deemed positive when bulky mutations (mostly tryptophans) at the site significantly reduce positive modulation by anesthetics; -: Negative results are indicated by “–“ symbols; conditions: for SCAMP result, γ2– (M1) I242: results of this study, etomidate cell also cites [9]
T2 construct: expressed in transfected cells; host or cells: Xenopus oocytes injected with capped mRNAs mixed 1α:1β:5γ
T2 sequence (P14867 28-456): as the sequence (P14867 28-456 A318C) above, with C291A counted along it
T2 sequence (P28472 26-473): as the sequence (P28472 26-473) above
T2 sequence (P18507 40-475 I281C): as the sequence (P18507 40-475) above, with I242C counted along it
Description: as §1, §2
as §3, with “The statistical significance threshold was p < 0.05.” left out

[13] = α1A291Cβ3γ2L, 8 µM R-mTFD-MPAB or 10 µM pTFD-di-iPr-BnOH

SMILES: C=CCC1(c2cccc(C3(C(F)(F)F)N=N3)c2)C(=O)NC(=O)N(C)C1=O (stereo not shown) [R-mTFD-MPAB, R-5-allyl-1-methyl-5-(m-trifluoromethyl-diazirynylphenyl) barbituric acid]
- Mutant-function result, β3+ (M2, M3) N265 [1]: -^[13, 15]
- Mutant-function result, γ2– (M1) I242 [2]: -^[9, 15]
- Mutant-function result, α1+ (M2, M3) S270 [3]: +^[13, 15]
- Mutant-function result, γ2– (M1) L246 [4]: -^[9]
- Mutant-function result, β3+ (M2, M3) M286 [5]: -^[13]
- Mutant-function result, γ2+ (M2, M3) S301 [6]: +^[13]
- Mutant-function result, γ2+ (M2, M3) S280 [7]: +^[13, 15]
- Mutant-function result, α1– (M1) M236 [8]: -^[9]
- protection from pCMBS modification (significant reduction of modification ratio vs control, p < 0.05) ([9]; α1A291C (α+), pCMBS 10 µM x 90 s, […] etomidate, 8 µM R-mTFD-MPAB or 10 µM pTFD-di-iPr-BnOH, n = 5): protection was inferred
- modification ratio with anesthetic present, single oocyte example (Fig 2) [9, 13]: 2.1
- modification ratio lower than control ([9]; α1A291Cβ3γ2L, single oocyte examples of Fig 2, control modification ratio 4.0): 47%
- Mutant-function result, β3– (M1) M227 [10]: +^[9, 15],
- Mutant-function result, β3– (M1) L231 [11]: -^[9]

SMILES: CCOC(=O)c1cncn1[C@H](C)c1ccccc1 [etomidate, R-etomidate]
- SCAMP result, γ2– (M1) I242 [12]: -^[9],6
- protection from pCMBS modification (significant reduction of modification ratio vs control, p < 0.05) ([12]; γ2I242C (γ–), pCMBS 100 µM x 30 s, […] etomidate or 10 µM pTFD-di-iPr-BnOH, n = 5): no protection was inferred
- Mutant-function result, β3+ (M2, M3) N265 [1]: +^[13, 15]
- Mutant-function result, γ2– (M1) I242 [2]: -^[9, 15]
- Mutant-function result, α1+ (M2, M3) S270 [3]: -^[13, 15]
- Mutant-function result, γ2– (M1) L246 [4]: -^[9]
- Mutant-function result, β3+ (M2, M3) M286 [5]: +^[13]
- Mutant-function result, γ2+ (M2, M3) S301 [6]: -^[13]
- Mutant-function result, γ2+ (M2, M3) S280 [7]: -^[13, 15]
- Mutant-function result, α1– (M1) M236 [8]: +^[9], [12]
- modification ratio with anesthetic present, single oocyte example (Fig 2) [9, 13]: 3.8
- Mutant-function result, β3– (M1) M227 [10]: -^[9, 15]
- Mutant-function result, β3– (M1) L231 [11]: +^[9]

SMILES: CC(C)c1cc(C2(C(F)(F)F)N=N2)cc(C(C)C)c1CO [pTFD-di-iPr-BnOH]
- SCAMP result, γ2– (M1) I242 [12]: -*
- Mutant-function result, β3+ (M2, M3) N265 [1]: -^[15]
- Mutant-function result, γ2– (M1) I242 [2]: +^[15]
- effect of mutation on receptor modulation by the anesthetic ([2]; γ2I242W mutation): significantly reduced
- Mutant-function result, α1+ (M2, M3) S270 [3]: +^[15]
- effect of mutation on receptor modulation by the anesthetic ([3]; α1S270I mutation): significantly reduced
- Mutant-function result, γ2+ (M2, M3) S280 [7]: -^[15]
- Mutant-function result, β3– (M1) M227 [10]: +^[15]
